Legend:
Format in all cases: in vivo
[1] = tested on: HORVS (Hordeum vulgare, summer barley); assay: Action under various soil conditions (soil types), test method 7, crop compatibility; details: IU/EC73 soil versus IU soil; g of AS/ha: (A) 90, (B) 1200, (C) 140, (A)+(B)+(C) 90 + 1200 + 140
Experimental: (§1) In the standard design of the test, seeds of various broad-leaved weed and weed grass biotypes (origins) were sown in a 8-13 cm diameter pot filled with natural soil of a standard field soil (loamy silt; non-sterile) and covered with a covering soil layer of about 1 cm. The pots were then cultivated in a greenhouse (12-16 h of light, temperature day 20-22° C., night 15-18° C.) until the time of application. The pots were treated on a laboratory track sprayer with spray liquors comprising the compositions according to the invention, mixtures of the prior art or components used individually. Application of the active compounds or active compound combinations formulated as WG, WP, EC or otherwise was carried out at the appropriate growth stages of the plants. The application rate for the spray application was 100-600 l of water/ha. After the treatment, the plants were returned to the greenhouses.
(§2) About 3 weeks after the application, the soil action or/and foliar action was assessed visually according to a scale of 0-100% in comparison to an untreated comparative group: 0%=no noticeable effect compared to the untreated comparative group; 100%=full effect compared to the untreated comparative group.
(§3) (notes: the term “seeds” also includes vegetative propagation forms such as, for example, rhizome pieces; abbreviations used: h light=hours of illumination, g of AS/ha=gram of active substance per hectare, l/ha=liter per hectare, S=sensitive, R=resistant) • 1. Pre-emergence action against weeds: seeds of various broad-leaved weed and weed grass biotypes (origins) were sown in a 8-13 cm diameter pot filled with natural soil of a standard field soil (loamy silt; non-sterile) and covered with a covering soil layer of about 1 cm. The pots were then cultivated in a greenhouse (12-16 h of light, temperature day 20-22° C., night 15-18° C.) until the time of application. The pots were treated at the BBCH stage 00-10 of the seeds/plants on a laboratory track sprayer with spray liquors comprising the compositions according to the invention, mixtures or components used individually, as WG, WP, EC or other formulations. The application rate for the spray application was 100-600 l of water/ha. After the treatment, the plants were returned to the greenhouses and, when required, treated with fertilizer and watered. • 2. Post-emergence action against weeds: seeds of various broad-leaved weed and weed grass biotypes (origins) were sown in a 8-13 cm diameter pot filled with natural soil of a standard field soil (loamy silt; non-sterile) and covered with a covering soil layer of about 1 cm. The pots were then cultivated in a greenhouse (12-16 h of light, temperature day 20-22° C., night 15-18° C.) until the time of application. The pots were treated at various BBCH stages between 11-25 of the seeds/plants, i.e. generally between two to three weeks after the start of the cultivation, on a laboratory track sprayer with spray liquors comprising the compositions according to the invention, mixtures or components used individually, as WG, WP, EC or other formulations. The application rate for the spray application was 100-600 l of water/ha. After the treatment, the plants were returned to the greenhouses and, when required, treated with fertilizer and watered. • 3. […]

AVEFA (Avena fatua) = assay: PE action at different soil pH values, test method 10; details: PE application, g of AS/ha: (A) 90, (B) 1200, (C) 140, (A)+(B)+(C) 90 + 1200 + 140
Experimental: as §1, §2

[2] = tested on: HORVS (Hordeum vulgare, summer barley); assay: Selective post-emergence action (crop compatibility), greenhouse trial, test method 4; details: PO application; g of AS/ha: (A) 240, (B) 1200, (C) 140, (A)+(B)+(C) 240 + 1200 + 140
Experimental: as §1, §2
(notes: the term “seeds” also includes vegetative propagation forms such as, for example, rhizome pieces; abbreviations used: h light=hours of illumination, g of AS/ha=gram of active substance per hectare, l/ha=liter per hectare, S=sensitive, R=resistant) • 1. Pre-emergence action against weeds: seeds of various broad-leaved weed and weed grass biotypes (origins) were sown in a 8-13 cm diameter pot filled with natural soil of a standard field soil (loamy silt; non-sterile) and covered with a covering soil layer of about 1 cm. The pots were then cultivated in a greenhouse (12-16 h of light, temperature day 20-22° C., night 15-18° C.) until the time of application. […]

VIOAR (Viola arvensis) = assay: Post-emergence (PO) action against weeds, greenhouse trial, test method 2; details: PO application; g of AS/ha: (A) 240, (B) 1200, (C) 140, (A)+(B)+(C) 240 + 1200 + 140
Experimental: as §1, §2, §3

LOLPE (Lolium perenne) [3] = assay: Pre-sowing application action against weeds (7 days prior to sowing), test method 5; details: application 7 days prior to sowing; g of AS/ha: (A) 90, (B) 1200, (C) 140, (A)+(B)+(C) 90 + 1200 + 140
Experimental: as §1, §2
(notes: the term “seeds” also includes vegetative propagation forms such as, for example, rhizome pieces; abbreviations used: h light=hours of illumination, g of AS/ha=gram of active substance per hectare, l/ha=liter per hectare, S=sensitive, R=resistant) • 1. Pre-emergence action against weeds: seeds of various broad-leaved weed and weed grass biotypes (origins) were sown in a 8-13 cm diameter pot filled with natural soil of a standard field soil (loamy silt; non-sterile) and covered with a covering soil layer of about 1 cm. The pots were then cultivated in a greenhouse (12-16 h of light, temperature day 20-22° C., night 15-18° C.) until the time of application. The pots were treated at the BBCH stage 00-10 of the seeds/plants on a laboratory track sprayer with spray liquors comprising the compositions according to the invention, mixtures or components used individually, as WG, WP, EC or other formulations. The application rate for the spray application was 100-600 l of water/ha. After the treatment, the plants were returned to the greenhouses and, when required, treated with fertilizer and watered. • 2. Post-emergence action against weeds: seeds of various broad-leaved weed and weed grass biotypes (origins) were sown in a 8-13 cm diameter pot filled with natural soil of a standard field soil (loamy silt; non-sterile) and covered with a covering soil layer of about 1 cm. The pots were then cultivated in a greenhouse (12-16 h of light, temperature day 20-22° C., night 15-18° C.) until the time of application. […]

LOLPE (Lolium perenne) [4] = assay: PE action under various irrigation conditions, test method 6; details: PE application, g of AS/ha: (A) 90, (B) 1200, (C) 140, (A)+(B)+(C) 90 + 1200 + 140
Experimental: as §1, §2
(§4) (notes: the term “seeds” also includes vegetative propagation forms such as, for example, rhizome pieces; abbreviations used: h light=hours of illumination, g of AS/ha=gram of active substance per hectare, l/ha=liter per hectare, S=sensitive, R=resistant) • 1. Pre-emergence action against weeds: seeds of various broad-leaved weed and weed grass biotypes (origins) were sown in a 8-13 cm diameter pot filled with natural soil of a standard field soil (loamy silt; non-sterile) and covered with a covering soil layer of about 1 cm. The pots were then cultivated in a greenhouse (12-16 h of light, temperature day 20-22° C., night 15-18° C.) until the time of application. The pots were treated at the BBCH stage 00-10 of the seeds/plants on a laboratory track sprayer with spray liquors comprising the compositions according to the invention, mixtures or components used individually, as WG, WP, EC or other formulations. The application rate for the spray application was 100-600 l of water/ha. After the treatment, the plants were returned to the greenhouses and, when required, treated with fertilizer and watered. • 2. Post-emergence action against weeds: seeds of various broad-leaved weed and weed grass biotypes (origins) were sown in a 8-13 cm diameter pot filled with natural soil of a standard field soil (loamy silt; non-sterile) and covered with a covering soil layer of about 1 cm. The pots were then cultivated in a greenhouse (12-16 h of light, temperature day 20-22° C., night 15-18° C.) until the time of application. The pots were treated at various BBCH stages between 11-25 of the seeds/plants, i.e. generally between two to three weeks after the start of the cultivation, on a laboratory track sprayer with spray liquors comprising the compositions according to the invention, mixtures or components used individually, as WG, WP, EC or other formulations. The application rate for the spray application was 100-600 l of water/ha. After the treatment, the plants were returned to the greenhouses and, when required, treated with fertilizer and watered. • 3. Selective pre-emergence action: seeds of various crop species (origins) were sown in a 8-13 cm diameter pot filled with natural soil of a standard field soil (loamy silt; non-sterile) and covered with a covering soil layer of about 1 cm. The pots were then cultivated in a greenhouse (12-16 h of light, temperature day 20-22° C., night 15-18° C.) until the time of application. The pots were treated at the BBCH stage 00-10 of the seeds/plants on a laboratory track sprayer with spray liquors comprising the compositions according to the invention, mixtures or components used individually, as WG, WP, EC or other formulations. The application rate for the spray application was 100-600 l of water/ha. […]

[5] = tested on: MATCH (Matricaria chamomilla); assay: as above; details: PE application; irrigation from below; g of AS/ha: (A) 90, (B) 1200, (C) 140, (A)+(B)+(C) 90 + 1200 + 140
Experimental: as §1, §2, §4

[6] = tested on: MATCH (Matricaria chamomilla); assay: Action under various soil conditions (soil types), test method 7; details: g of AS/ha: (A) 90, (B) 1200, (C) 140, (A)+(B)+(C) 90 + 1200 + 140
Experimental: as §1, §2, §4

[7] = tested on: ALOMY sensitive (Alopecurus myosuroides); assay: PE action on resistant weed biotypes, test method 8; details: PE application; g of AS/ha: (A) 90, (B) 1200, (C) 140, (A)+(B)+(C) 90 + 1200 + 140, iodosulfuron 10
Experimental: as §1, §2, §4

[8] = tested on: LOLSS sensitive (Lolium species); assay: as above; details: PE application; g of AS/ha: (A) 90, (B) 1200, (C) 140, (A)+(B)+(C) 90 + 1200 + 140, iodosulfuron 10
Experimental: as §1, §2, §4

[9] = tested on: ALOMY resistant (Alopecurus myosuroides); assay: as above; details: PE application; g of AS/ha: (A) 90, (B) 1200, (C) 140, (A)+(B)+(C) 90 + 1200 + 140, iodosulfuron 10
Experimental: as §1, §2, §4

CC(C)N(C(=O)COc1nnc(C(F)(F)F)s1)c1ccc(F)cc1 [(A) flufenacet, N-(4-fluorophenyl)-N-(1-methylethyl)-2-[[5-(trifluoromethyl)-1,3,4-thiadiazol-2-yl]oxy]acetamide]
Difference of the soil types, HORVS [1]: −10%
activity AVEFA pH 7.4 (AVEFA (Avena fatua); soil pH 7.4): 80%
activity AVEFA pH 8.4 (AVEFA (Avena fatua); soil pH 8.4): 55%
activity HORVS (crop plant; visual, scale 0-100%) [2]: 60%
activity VIOAR (visual, scale 0-100%) (VIOAR (Viola arvensis)): 50%
activity LOLPE (LOLPE (Lolium perenne) [3]): 93%
activity LOLPE (LOLPE (Lolium perenne) [4]; irrigation from above): 82%
activity LOLPE (LOLPE (Lolium perenne) [4]; irrigation from below): 75%
activity MATCH [5]: 15%
activity MATCH IU soil ([6]; IU soil): 28%
Difference of the soil types, MATCH ([6]; IU/EC73 soil versus IU soil): −23%
activity MATCH IU/EC73 soil ([6]; IU/EC73 soil): 5%
activity ALOMY sensitive [7]: 80%
activity LOLSS sensitive [8]: 5%
activity ALOMY resistant [9]: 68%

— patent publication US20110152093A1, “Herbicidal compositions comprising flufenacet” (Bayer CropScience AG, priority 2009, published 2011)
